# Molecular target: zebrafish WT α1BB-AR (Danio rerio, UniProt Q5U3D9)
# Experiment: cell-based
# Chain of zebrafish WT α1BB-AR (Q5U3D9 1-481): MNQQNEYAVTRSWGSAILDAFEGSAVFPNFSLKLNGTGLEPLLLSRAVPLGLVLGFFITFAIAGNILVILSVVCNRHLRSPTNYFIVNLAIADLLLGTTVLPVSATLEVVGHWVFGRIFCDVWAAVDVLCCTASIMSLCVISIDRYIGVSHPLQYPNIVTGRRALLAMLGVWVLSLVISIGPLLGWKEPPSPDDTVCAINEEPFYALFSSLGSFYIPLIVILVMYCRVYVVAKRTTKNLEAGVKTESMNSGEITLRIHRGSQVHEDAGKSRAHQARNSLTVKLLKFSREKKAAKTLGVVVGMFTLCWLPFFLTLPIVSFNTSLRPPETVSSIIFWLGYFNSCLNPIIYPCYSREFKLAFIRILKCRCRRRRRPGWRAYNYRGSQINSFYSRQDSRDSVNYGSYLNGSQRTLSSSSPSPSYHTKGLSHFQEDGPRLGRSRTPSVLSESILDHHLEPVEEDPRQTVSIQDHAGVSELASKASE
structure (smiles),measurement,value
"NC[C@H](O)c1ccc(O)c(O)c1 [NE, norepinephrine]",EC50,407 ± 45 nM

# Reference: article PMC6882899 (Scientific Reports, 2019)
